Consider 1 compound from US20100273895A1, “FORMULATIONS OF CANNABIDIOL AND PRODRUGS OF CANNABIDIOL AND METHODS OF USING THE SAME” (AllTranz Inc., priority 2009, published 2010).

This series can be described thus: CBD accelerated stability study at 40° C. Type of series: physicochemical. As for the experimental part: In order to assess the stability of cannabidiol formulations, the pH rate profiles over a range of probable pHs were studied. The rate profile with the lowest Kdeg would be desirable in order to ensure a two-year shelf life for a cannabidiol gel. The pH ranges studied were 4.0, 5.0, 5.5, 6.0, 6.5 and 7.0 prepared with either an acetate (0.01M: pH 4.0, 5.0 and 5.5) or phosphate (0.01 M: pH 6.0, 6.5 and 7.0) buffer system and maintained at an ionic strength of 0.154 M with NaCl at 40° C. CBD was prepared at 1 mg/mL and analyzed initially at a theoretical 10 μg/ml concentration. The results of these studies appear in FIGS. 13 and 14.
Additional stability studies were conducted with CBD synthesized by alternate routes. […] Over sixty-five days, the purity of CBD is still greater than 99%.

Setting [1] is: sixty-five day accelerated stability study at 40° C.

Take `C=C(C)[C@@H]1CCC(C)=C[C@H]1c1c(O)cc(CCCCC)cc1O` [CBD, cannabidiol]: under “65 days in a 40° C. chamber”, the “28.9 min peak as share of the total area compared to the CBD peak” value is “approximately 0.74%”. Further, for the setting “over sixty-five days”, the “purity of CBD” value was “greater than 99%”. For the same compound, under setting [1], the degradation result is listed as “no significant degradation” and the purity remaining is recorded as more than 98%.
